From US6758840B2, “Drug delivery device” (Metris Therapeutics Limited, priority 2000, dated 2004)

What was measured:
[1] = Plasma mefenamic acid after intra-vaginal device with wax layer (Example 3); assay type: in vivo, Rhesus monkeys; conditions: intra-vaginal tampon device, wax fluid-impermeable layer, mefenamic acid dusted on; Rhesus monkey plasma
Text: Further devices according to the present invention were made and used to deliver a pharmaceutical agent intra-vaginally in Rhesus monkeys.
(§1) Materials used in the manufacture of commercial tampons for human use were reconstituted to produce tampons with dimensions 7 mm×25 mm or 5 mm×25 mm. Depending on the weight of an individual Rhesus monkey, one of these sizes of tampon was able to be conveniently inserted into the vagina of the Rhesus monkey.
Wax material was used to create a fluid-impermeable layer of the tampons by warming the wax layer to make it adhere to the body of the tampon. Once the wax layer had been applied, mefenamic acid was “dusted” onto the device while the device was warmed to aid adhesion between the wax and the mefenamic acid. Non-adherent mefenamic acid was removed.
(§2) Rhesus monkeys were anaesthetised with ketamine hydrochloride and one of the above-mentioned tampon devices was inserted into the vagina of each monkey. A 19 gauge catheter was inserted into the saphenous vein of each monkey. This catheter was used to collect blood samples during the course of the study. The monkeys were returned to their cages when appropriate.
(§3) Blood samples were taken at intervals and plasma was prepared and frozen. After the completion of the study, all plasma samples were assayed for the concentration of mefenamic acid.

[2] = Plasma mefenamic acid after intra-vaginal wax-layer device, eight monkeys (Example 4); assay type: in vivo; conditions: average 6.4 mg mefenamic acid per device, mean of eight Rhesus monkeys
Procedure: Eight devices were prepared as described in Example 3. The devices were assayed and the average amount of mefenamic found to be in each device was 6.4 mg. Each device was inserted into the vagina of one of eight Rhesus monkeys. The monkeys all weighed in the range 7.27 kg to 8.95 kg.
(§4) Blood samples were taken from the Rhesus monkeys and the samples were assayed as described in Example 3, at the time intervals shown in the graph of FIG. 18. The results of this study are shown in the graph of FIG. 18, which indicates the concentration in ng/ml of mefenamic acid found in the plasma of the Rhesus monkeys with time following insertion of the devices of this example. Each point of the graph of FIG. 18 represents the mean value of the concentration of the eight monkeys.

[3] = Comparison of uptake of mefenamic acid from device and from slurry (Example 5); assay type: in vivo; conditions: Rhesus monkeys
Text: A comparison was made between the uptake of mefenamic acid in Rhesus monkeys where the mefenamic acid was introduced intra-vaginally using the devices of Example 3 and the uptake of mefenamic acid in Rhesus monkeys where a slurry comprising mefenamic acid was introduced intra-vaginally.
The slurry of mefenamic acid applied to a Rhesus monkey comprised a total amount of mefenamic acid that was greater than ten times that applied to a Rhesus monkey using the device of Example 3.
as §4, with “19.” for “18.”, “19,” for “18,”, “devices (circles) and slurry (triangles)” for “devices”, “example.” for “example. Each point of the graph of FIG. 18 represents the mean value of the concentration of the eight monkeys.”

[4] = Plasma mefenamic acid after intra-vaginal device with adhesive tape layer (Example 2); assay type: in vivo, Rhesus monkeys; conditions: intra-vaginal tampon device, double-sided adhesive tape as fluid-impermeable layer, mefenamic acid powder dusted on; Rhesus monkey plasma
Text: Devices according to the present invention were made and used to deliver a pharmaceutical agent intra-vaginally in Rhesus monkeys.
as §1
A strip of double-sided adhesive tape was secured to the surface of the tampons to function as the fluid-impermeable layer. Mefenamic acid powder was “dusted” onto the surface of the tape and non-adherent mefenamic acid was removed.
as §2, §3

Cc1cccc(Nc2ccccc2C(=O)O)c1C [mefenamic acid]
transport across the vaginal mucosa / systemic circulation (plasma concentration, FIG. 17) [1]: mefenamic acid was transported across the vaginal mucosa and systemic circulation of mefenamic acid was achieved
transport across the vaginal mucosa / systemic circulation (plasma concentration, FIG. 18) [2]: mefenamic acid was transported across the vaginal mucosa and systemic circulation of mefenamic acid was achieved
uptake of mefenamic acid (plasma concentration, FIG. 19) ([3]; introduced intra-vaginally as slurry, total amount greater than ten times that of the device): only limited uptake of mefenamic acid by the monkeys was achieved
uptake of mefenamic acid (plasma concentration, FIG. 19) ([3]; introduced intra-vaginally using the device of Example 3 (wax layer)): transportation of mefenamic acid across the vaginal mucosa and systemic circulation of mefenamic acid in the Rhesus monkeys was achieved
transport across the vaginal mucosa / systemic circulation (plasma concentration, FIG. 16) [4]: mefenamic acid was transported across the vaginal mucosa and systemic circulation of mefenamic acid was achieved
